Results reported in patent publication US20240024291A1, “Uses of Dihydroorotate Dehydrogenase Inhibitors” (University of Maryland, Baltimore, priority 2022, published 2024).

What was measured:
[1] = system: 913 PIP-FUCCI reporter cells; experiment: PIP-FUCCI in vitro cell cycle assay; type: cell-based, human; settings: for percentage of cells in the S phase: 48 hours (DMSO 20%)
Protocol: To monitor cell cycle progression, 913 glioblastoma neurosphere-derived cells expressing pLenti-PGK-Neo-PIP-FUCCI were first cloned. pLenti-PGK-Neo-PIP-FUCCI was from Jean Cook (Addgene plasmid #118616; n2t.net/addgene:118616; RRID:Addgene_118616) (52). Cells were then treated with either 0, 10 nM, or 100 nM compound 1 for 48 hours, stained with 1 mg/mL Hoechst for 2 hours, and visualized by direct fluorescence microscopy. A twenty-four-hour treatment with […] of the DNA replication inhibitor Aphidicolin was used as a positive control for S-phase arrest. A collection of five images per well, each set containing at least 10,000 cells, was captured for each treatment. Each treatment was performed in technical quadruplicates, and each experiment was repeated twice on different days. Images were acquired using Cytation 5 plate reader (BioTek, Winooski, VT, USA) and scored using Gen5 software. Cell cycle phases were determined by x/y plot of mVenus and mCherry intensities per nucleus and gating boundaries on the Aphidicolin control.
It has been reported that depletion of pyrimidine nucleotides leads to incomplete DNA replication and elicits a stress response that blocks cell cycle progression. […] The original design was developed in 2008 by Miyawaki and colleagues (51).

[2] = system: 913 orthotopic xenografts; experiment: Orthotopic glioblastoma xenograft, drug treatment; type: in vivo
Protocol: (§1) Experiments with animals were performed in compliance with institutional guidelines and regulations. Four- to six-week-old male and female NCG mice (NOD-Prkdcem26Cd52112rgem26Cd22/NjuCrl, Charles River Laboratory, Wilmington, MA) were used in all experiments in approximately equal numbers of each sex in each experimental group. The 08-387 m-Cherry Luciferase or 913 Luciferase expressing cells (1×10 5) were stereotactically injected into the right striatum as previously described (30). Two weeks after the injection of the cells, tumor growth was monitored with bioluminescence imaging using an IVIS Spectrum imaging system equipped with the Living Image software package (Perkin Elmer). Male and female mice harboring orthotopic xenografts with Radiance (p/sec/cm2/sr) equal to or greater than 1x10 6 were randomly assigned to the control or compound 1 treatment groups. Mice were dosed daily by oral gavage with either vehicle (90/10 Kollisolv® PEG400/EtOH solution) or 3 mg/kg compound 1. Animal weight was monitored daily, and mice were sacrificed when they became symptomatic.
(§2) To generate equivalent treatment groups and facilitate the tracking of xenograft growth, these cells were transduced with a mCherry:Luciferase reporter. An equal number of male and female immunodeficient mice were injected, and overall survival was the primary endpoint. Mice were imaged weekly starting two weeks after the injection and then randomized to the two treatment groups when tumor Radiance surpassed 1x10 6 photons/sec/cm^2/sr (sr=units of solid angle or steradian). Compound 1 (3 mg/kg) or vehicle were delivered daily by oral gavage.

[3] = system: 08-387 orthotopic xenografts; experiment: Orthotopic glioblastoma xenograft, drug treatment; type: in vivo
Protocol: as §1, §2

[4] = system: 08-387 neurosphere line transduced with EGFRvIll or GFP; experiment: Resistance assay, EGFRvIll or GFP transduced cells; type: cell-based, human; parameters: dose or concentration left out as unconfirmed
Protocol: (§3) Ten thousand 08-387 or 913 glioblastoma cells per well were seeded in a 96 well plate. Post 24 hr plating, 08-387 and 913 cells were treated with a varying dosage of compound 1 or with a varying dosage of gemcitabine alone or with 100 nM of compound 1. Post 72 hr of treatment, cell viability was calculated on Alamar blue absorbance reading.
(§4) The pLV[Expressior]-mCherry:T2A:Hygro-EF1A>Luc2 (Addgene Plasmid #174665) and pLV[Exp]-Bsd-EFS>EGFRvIll:T2A:TurboGFP (Addgene Plasmid #189841) lentivirus plasmids were designed by us and constructed by VectorBuilder. These plasmids are available at Addgene.
(§5) To further evaluate the potential role of EGFR in compound 1 resistance, the 913 and 08-387 neurosphere lines were transduced with lentiviruses encoding EGFRvIll or GFP (as control) and these neurospheres were challenged with a relatively high dose of 1 mM compound 1.

[5] = system: 913 neurosphere line transduced with EGFRvIll or GFP; experiment: Resistance assay, EGFRvIll or GFP transduced cells; type: cell-based, human; parameters: dose or concentration left out as unconfirmed
Protocol: as §3, §4, §5

[6] = system: 3691 glioblastoma neurosphere line; experiment: CellTiter-Glo in vitro proliferation assay; type: cell-based; settings: Homo sapiens, 72 h, 3691 (table prints 3639)
Protocol: (§6) A Biospherix X3, hypoxic incubation system, was maintained at 37° C., 1% 02, 5% CO2, and 94% N2 (Biospherix, Ltd—Parish, NY) to conduct in vitro hypoxic experiments. Cells were plated, then incubated in normoxia overnight before transferring the culture dishes to hypoxia for the duration indicated in the main text.
(§7) Glioblastoma neurosphere lines were plated in 96-well plates at 25,000 cells per well in […] of media and treated with compound 1 in the presence or absence of 100 μM uridine. Cell Titer-Glo® Luminescent Cell Viability Assay (Promega, Madison, WI, USA) was performed 72 hours after treatment. Luminescence was determined using a Cytation 5 reader and Gen5 software package (BioTek, Winooski, VT, USA).
(§8) The compound's efficacy was examined against a collection of genetically diverse patient-derived GSC lines in vitro. The IC50 profiles of compound 1 in the seven GSC lines tested were established using the CellTiter-Glo® reagent and calculated with GraphPad software.

[7] = system: 1079 glioblastoma neurosphere line; experiment: CellTiter-Glo in vitro proliferation assay; type: cell-based; settings: Homo sapiens
Protocol: as §6, §7, §8

[8] = system: Mayo6 glioblastoma neurosphere line; experiment: CellTiter-Glo in vitro proliferation assay; type: cell-based; settings: Homo sapiens
Protocol: as §6, §7, §8

[9] = system: Mayo15 glioblastoma neurosphere line; experiment: CellTiter-Glo in vitro proliferation assay; type: cell-based; settings: Homo sapiens
Protocol: as §6, §7, §8

[10] = system: Mayo39 glioblastoma neurosphere line; experiment: CellTiter-Glo in vitro proliferation assay; type: cell-based; settings: Homo sapiens
Protocol: as §6, §7, §8

In the case of `CCn1c(CO)nn(-c2cc(O[C@@H](C)C(F)(F)F)c(C(=O)Nc3c(F)cccc3Cl)cc2F)c1=O` [Compound 1, N-(2-chloro-6-fluorophenyl)-4-[4-ethyl-4,5-dihydro-3-(hydroxymethyl)-5-oxo-1H-1,2,4-triazol-1-yl]-5-fluoro-2-[(1S)-2,2,2-trifluoro-1-methylethoxy]-benzamide], the “percentage of cells in the S phase” value ([1]; 10 nM) is reported as 70%, the “percentage of cells in the S phase” value ([1]; 100 nM) is reported as 64% and the “cell cycle effects with uridine supplementation” value ([1]; uridine supplementation) is reported as “completely blocked”. The “tumor radiance lower than in vehicle controls” value (shortened to “tumor radiance lower than”) ([2]; 913, week 1, 3 mg/kg daily oral) was 6.5%, the “tumor radiance lower than” value ([2]; 913, week 2, 3 mg/kg daily oral) was 41% and the “tumor radiance lower than” value ([2]; 913, week 3, 3 mg/kg daily oral) was 52%. The “body weight / tolerability” value ([2]; 913 xenograft mice, 3 mg/kg daily oral gavage) was “no significant weight loss”, the “median survival from initiation of treatment” value ([2]; 913 xenografts, 3 mg/kg daily oral (vehicle 32 days)) was 41 days and the “increase in median survival” value ([2]; 913 xenografts, vs vehicle) was 28%. For the same compound, the “tumor radiance compared to controls” value ([3]; 08-387, week 1, 3 mg/kg daily oral) was “roughly the same”, the “tumor radiance lower compared to controls” value ([3]; 08-387, week 2, 3 mg/kg daily oral) was 47% and the “tumor radiance lower compared to controls” value ([3]; 08-387, week 3, 3 mg/kg daily oral) was 75%. The “body weight / tolerability” value ([3]; 08-387 xenograft mice, 3 mg/kg daily oral gavage) was “no significant weight loss”, the “median survival from initiation of treatment” value ([3]; 08-387 xenografts, 3 mg/kg daily oral (vehicle 12 days)) was 19 days and the “increase in median survival” value ([3]; 08-387 xenografts, vs vehicle) was 58%. The surviving cell fraction ([4]; 08-387 EGFRvIll) was 36.7%, the surviving cell fraction ([4]; 08-387 GFP (control)) was 4% and the surviving cell fraction ([5]; 913 EGFRvIll) was 55.2%. For the same compound, the surviving cell fraction ([5]; 913 GFP (control)) was 27.9%, the IC50 ([6]; hypoxia) was 0.0122 µM and the IC50 ([6]; normoxia) was 0.0074 µM. It also gave an IC50 [7]; 1079 of 1.2 µM, an IC50 ([7]; 72 h, 1079, hypoxia, 72 hours) of 23.7 µM and an IC50 ([7]; 72 h, 1079, normoxia, 72 hours) of 1.2 µM. It also gave an IC50 ([8]; 72 h, Mayo6, hypoxia) of 228 µM, an IC50 ([8]; 72 h, Mayo6, normoxia) of 164 µM and an IC50 ([8]; Mayo6) of 164 µM. For the same compound, the IC50 ([9]; 72 h, Mayo15, hypoxia) was 146 µM, the IC50 ([9]; 72 h, Mayo15, normoxia) was 64 µM and the IC50 ([9]; Mayo15) was 64 µM. It also gave an IC50 ([10]; 72 h, Mayo39, hypoxia) of 153 µM, an IC50 ([10]; 72 h, Mayo39, normoxia) of 182 µM and an IC50 ([10]; Mayo39) of 182 µM.
